Counter-ions that a name gives are not always drawn.
Columns and labels:
Format in all cases: cell-based
Details in all cases: 33° C., 4 days
[1] = test system: Escherichia coli H-9340; test: Comparative test of growth on agar plate medium containing primaquine or novobiocin, parent strain H-9340
Protocol: (§1) Preparation of an L-histidine-producing mutant strain having resistance to a DNA gyrase inhibitor or an L-histidine-producing mutant strain having both resistance to a DNA gyrase inhibitor and resistance to an aminoquinoline derivative The L-histidine-producing mutant strain H-9340 having resistance to 1,2,4-triazole alanine, which was derived from methionine-requiring Escherichia coli ATCC 21318 was subjected to a mutation treatment with N-methyl-N′-nitro-N-nitrosoguanidine (NTG) (0.2 mg/ml, 30° C., 30 minutes) according to a conventional method and spread on a 1 g/liter noboviocin monosodium salt-containing agar plate medium [0.2% glucose, 0.3% potassium dihydrogen phosphate, 0.6% disodium hydrogen phosphate, 0.01% magnesium sulfate, 0.05% sodium chloride, 0.1% ammonium chloride, 50 mg/liter required nutrient (DL-methionine) and 1.5% agar, pH 7.2].
(§2) Comparative test of growth on agar plate culture medium containing primaquine or novobiocin
The growth of the mutant strains H-9342 and H-9343 obtained in Example 1 was compared with the growth of the parent strain H-9340 on an agar plate medium containing primaquine or novobiocin. […]

[2] = test system: Escherichia coli H-9342; test: Comparative test of growth on agar plate medium containing primaquine or novobiocin, mutant strain H-9342
Protocol: as §1
The mutant strain was cultured on the agar plate medium at 30° C. for 2 to 6 days, and the growing large colonies were picked up and separated to obtain the strain H-9342.
as §2
(§3) The growth of the mutant strains H-9342 and H-9343 obtained in Example 1 was compared with the growth of the parent strain H-9340 on an agar plate medium containing primaquine or novobiocin.
(§4) Each of the mutant strains, which had been cultured in a natural medium for 24 hours and suspended in physiological saline, was spread at a cell density of 1 to 10 cells/cm^2 on the agar plate medium containing primaquine disodium salt or novobiocin monosodium salt at the same concentration as that at the time of acquisition of each mutant strain, and cultured at 33° C. for 4 days.

[3] = test system: Escherichia coli H-9343; test: Comparative test of growth on agar plate medium containing primaquine or novobiocin, mutant strain H-9343
Protocol: Furthermore, the obtained colony was subjected to a mutation treatment with NTG (0.2 mg/ml, 30° C., 30 minutes), followed by spreading on an agar plate culture medium containing 150 mg/liter primaquine disodium salt. Culturing was carried out thereon at 30° C. for 2 to 6 days, and growing large colonies were picked up and separated to obtain the strain H-9343. The strains H-9340, H-9342 and H-9343 were deposited on March 9, 1999 with the National Institute of Bioscience and Human-Technology, Agency of Industrial Science and Technology (1-3, Higashi 1-chome, Tsukuba-shi, Ibaraki-ken, Japan) under the Budapest Treaty with accession Nos. FERM BP-6673, FERM BP-6675 and FERM BP-6676, respectively.
as §2, §3, §4

[4] = 150 mg/liter primaquine disodium salt in agar medium
[5] = 1 g/liter novobiocin monosodium salt in agar medium

Structure (SMILES)	Growth or non-growth on agar plate medium [1, 4]	Growth or non-growth on agar plate medium [2, 4]	Growth on the primaquine-containing culture medium (in words) ([2]; primaquine-containing agar medium)	Growth or non-growth on agar plate medium [3, 4]	Growth or non-growth on agar plate medium [1, 5]	Growth or non-growth on agar plate medium [2, 5]	Growth or non-growth on agar plate medium [3, 5]
COc1cc(NC(C)CCCN)c2ncccc2c1 (stereo not shown) [Primaquine disodium salt, primaquine disodium salt]	−	−	did not grow	+			
CO[C@@H]1[C@@H](OC(N)=O)[C@@H](O)[C@H](Oc2ccc3c(O)c(NC(=O)c4ccc(O)c(CC=C(C)C)c4)c(=O)oc3c2C)OC1(C)C [Novobiocin monosodium salt, novobiocin monosodium salt]					−	+	+
